Laboratory results: paper PMC9822041 (Molecules, 2022)
Values joined by “and” are separate entries in the source; they are usually repeats but may differ in a detail not shown here. Equal entries are not always repeated. Where two headings read alike, the source gives them in different places.

What was measured:
[1] = molecular target: hDYRK1A (Homo sapiens, UniProt Q13627); assay: DYRK1A Human CMGC Kinase Enzymatic Radiometric Assay [Km ATP]; type: biochemical
[2] = Solubility of 1p in PBS (HPLC); type: physicochemical; conditions: aqueous buffer, kinetic from dmso stock; PBS pH 7.4, 24 h at 20 °C; read-out: Experimental solubility in PBS
[3] = in vitro; conditions: PAMPA, pH 7.4
[4] = In vitro stability/oxidation of 1p to 2p in PBS, NAD+, H2O2 and riboflavin solutions (HPLC-UV); type: physicochemical; conditions: 25 μM 1p
[5] = molecular target: hCLK1 (Homo sapiens, UniProt P49759); assay: CLK1 Human CMGC Kinase Enzymatic Radiometric Assay [Km ATP]; type: biochemical
[6] = In vitro DPPH radical scavenging assay; conditions: methanol, 37 °C, 40 min, absorbance at 517 nm
Description: Finally, the aptitude of 1p to act as a free radical scavenger was assessed using the rapid, inexpensive and widely used DPPH^• (2,2-diphenyl-1-picrylhydrazyl) scavenging method. Dark purple DPPH^• is a stable free radical that can accept an electron or hydrogen to become a stable diamagnetic molecule with the loss of violet color. […] Thus, this novel class of hDYRK1A/hCLK1 inhibitors are all the more interesting that they may also potentially display an additional antioxidant activity to combat oxidative stress in AD.
Figure 1. In vitro stability of 1p in various non-oxidazing and oxidazing media.
III – In vitro DPPH radical scavenging assay
DPPH radical scavenging activity was determined according to the method described by Blois.5 0.5 mL of 0.1 mM DPPH radical solution in methanol was mixed with 1.5 mL of various concentrations in methanol of 1p. The mixture was then thoroughly vortexed for 5s and each antioxidant-DPPH radical reaction mixture is kept in the test tubes in the dark at 37 °C for 40 min (time point by which all reactions should have reached steady state) and transferred to a cuvette for absorbance measurement at 517 nm. For the baseline control, 1.5 mL of methanol was used. […] Percentage of inhibition was calculated using the equation [(A0−A1)/A0] × 100 where A0 was the absorbance of the control and A1 was the absorbance in the presence of the compound. […]

[7] = test system: DYRK1A; conditions: cited from earlier work
[8] = test system: CLK1; design: method as in PMID 20981014, PMID 15010457; conditions: cited from earlier work
[9] = compared with N-methyl dihydroquinoline 1h
[10] = radiometric assay, Km ATP, read-out: IC50 hDYRK1A
[11] = radiometric assay, Km ATP, read-out: IC50 hCLK1
[12] = quinolinium salt and quinoline intermediates, read-out: IC50 hDYRK1A (synthetic intermediates)
[13] = quinolinium salt and quinoline intermediates, read-out: IC50 hCLK1 (synthetic intermediates)

Chain of hCLK1 (P49759 whole entry): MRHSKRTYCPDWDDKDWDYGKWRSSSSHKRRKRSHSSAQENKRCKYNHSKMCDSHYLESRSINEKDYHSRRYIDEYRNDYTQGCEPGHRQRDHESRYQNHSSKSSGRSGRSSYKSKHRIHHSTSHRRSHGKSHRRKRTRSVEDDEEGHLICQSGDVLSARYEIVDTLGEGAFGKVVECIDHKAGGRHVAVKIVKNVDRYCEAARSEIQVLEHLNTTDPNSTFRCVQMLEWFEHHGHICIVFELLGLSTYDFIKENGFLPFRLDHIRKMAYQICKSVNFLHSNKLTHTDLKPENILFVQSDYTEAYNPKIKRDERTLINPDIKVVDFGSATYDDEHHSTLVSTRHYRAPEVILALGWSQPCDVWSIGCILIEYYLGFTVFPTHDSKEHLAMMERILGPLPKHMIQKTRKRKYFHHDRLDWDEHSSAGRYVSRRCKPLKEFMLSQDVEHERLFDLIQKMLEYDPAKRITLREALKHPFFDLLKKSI

| SMILES | melting point | IC50 [1, 10] | IC50 [5, 11] | further results |
| --- | --- | --- | --- | --- |
| CCCN1C=C(C(C)=O)Cc2ccc(OC)cc21 [Compound 1p, 1-(7-Methoxy-1-propyl-1,4-dihydroquinolin-3-yl)ethanone] | 98 to 99 °C | 0.153 ± 0.044 µM | 0.047 ± 0.013 µM | fold more potent than 1h toward hDYRK1A [1, 9]: 2.5 fold; solubility at 24 h [2]: 600 µM and 147 µg/mL; Papp at 4 h, 100 µM [3]: 20 ± 0.9 ×10⁻⁶ cm/s; % formed 2p after incubation at 37 °C ([4]; 0.1% H2O2 in PBS, after 3.5 h): 13%; % formed 2p after incubation at 37 °C ([4]; 0.1% H2O2 in PBS, after 24 h): 53%; % formed 2p after incubation at 37 °C ([4]; 0.1% riboflavin in PBS, after 3.5 h (in less than 3.5 h)): 100%; % formed 2p after incubation at 37 °C ([4]; 0.2% NAD+ in PBS, after 3.5 h): 5%; % formed 2p after incubation at 37 °C ([4]; 0.2% NAD+ in PBS, after 24 h): 16%; % formed 2p after incubation at 37 °C ([4]; 2% NAD+ in PBS, after 3.5 h): 24%; % formed 2p after incubation at 37 °C ([4]; 2% NAD+ in PBS, after 24 h): 77%; % formed 2p after incubation at 37 °C ([4]; PBS pH 7.4, after 3.5 h): 3%; % formed 2p after incubation at 37 °C ([4]; PBS pH 7.4, after 24 h): 8%; fold more potent than 1h toward hCLK1 [5, 9]: 8 fold; EC50 [6]: 128 µM |
| COc1ccc2c(c1)N(C)C=C(C(C)=O)C2 [Compound 1h, 1-(7-Methoxy-1-methyl-1,4-dihydroquinolin-3-yl)ethanone] | 99 to 100 °C | 0.385 ± 0.13 µM | 0.377 ± 0.158 µM | – |
| CC(=O)C1=CN(C)c2cc(N(C)C)ccc2C1 [Compound 1c, 1-(7-(Dimethylamino)-1-methyl-1,4-dihydroquinolin-3-yl)ethanone] | 126 to 127 °C | > 10 µM | > 10 µM | – |
| COc1ccc2c(c1)N(C)C=C(C#N)C2 [Compound 1i, 7-Methoxy-1-methyl-1,4-dihydroquinoline-3-carbonitrile] | 127 to 128 °C | > 10 µM | > 10 µM | – |
| CC(=O)C1=CN(C)c2cc(C(F)(F)F)ccc2C1 [Compound 1b, 1-(1-Methyl-7-(trifluoromethyl)-1,4-dihydroquinolin-3-yl)ethanone] | 141 to 142 °C | > 10 µM | > 10 µM | – |
| COc1ccc2cc(C(C)=O)cnc2c1 [Compound 6h, 3-Acetyl-7-methoxyquinoline] | 129 to 130 °C | – | – | IC50 [1, 12]: > 10 µM; IC50 [5, 13]: > 10 µM |
| COc1cc2c(cc1OC)N(C)C=C(C(C)=O)C2 [Compound 1f, 1-(6,7-Dimethoxy-1-methyl-1,4-dihydroquinolin-3-yl)ethanone] | 235 to 236 °C | > 10 µM | > 10 µM | – |
| CC(=O)C1=CN(C)c2cc(Br)ccc2C1 [Compound 1d, 1-(7-Bromo-1-methyl-1,4-dihydroquinolin-3-yl)ethanone] | 179 to 180 °C | > 10 µM | > 10 µM | – |
| COc1ccc2c(c1)N(Cc1ccccc1)C=C(C(C)=O)C2 [Compound 1n, 1-(1-Benzyl-7-methoxy-1,4-dihydroquinolin-3-yl)ethanone] | 129 to 130 °C | 3.02 ± 0.15 µM | 0.595 ± 0.063 µM | – |
| COc1ccc2c(c1)N(CCc1ccccc1)C=C(C(C)=O)C2 [Compound 1o, 1-(7-Methoxy-1-phenethyl-1,4-dihydroquinolin-3-yl)ethanone] | 92 to 93 °C | 1.11 ± 0.203 µM | 0.122 ± 0.012 µM | – |
| COc1ccc2c(c1)N(C)C=C(C(=O)N(C)C)C2 [Compound 1l, 7-Methoxy-N,N,1-trimethyl-1,4-dihydroquinoline-3-carboxamide] | 219 to 220 °C | > 10 µM | > 10 µM | – |
| CC(=O)C1=CN(C)c2ccccc2C1 [Compound 1a, 1-(1-Methyl-1,4-dihydroquinolin-3-yl)ethanone] | – | > 10 µM | > 10 µM | – |
| COC(=O)C1=CN(C)c2cc(OC)ccc2C1 [Compound 1j, Methyl 7-methoxy-1-methyl-1,4-dihydroquinoline-3-carboxylate] | 95 to 96 °C | > 10 µM | 1.46 ± 0.253 µM | – |
| CCN1/C(=C/C(C)=O)Sc2ccc(OC(C)=O)cc21 [ProINDY] | – | – | – | DYRK1A % inhibition ([7]; at 10 μM): 26.1% |
| CCOC(=O)C1=CN(C)c2cc(OC)ccc2C1 [Compound 1k, Ethyl 7-methoxy-1-methyl-1,4-dihydroquinoline-3-carboxylate] | 93 to 94 °C | > 10 µM | 3.16 ± 0.525 µM | – |
| CCN1/C(=C/C(C)=O)Sc2ccc(O)cc21 [INDY, (Z)-1-(3-Ethyl-5-hydroxy-2(3H)-benzothiazolylidene)-2-propanone] | – | – | – | CLK1 % inhibition ([8]; at 10 μM): 99% |
| COc1ccc2c(c1)N(C)C=C(C(=O)N(C)OC)C2 [Compound 1m, N,7-Dimethoxy-N,1-dimethyl-1,4-dihydroquinoline-3-carboxamide] | – | > 10 µM | > 10 µM | – |
| CC(=O)C1=CN(C)c2ccc(Cl)cc2C1 [Compound 1e, 1-(6-Chloro-1-methyl-1,4-dihydroquinolin-3-yl)ethanone] | 124 to 125 °C | > 10 µM | > 10 µM | – |
| CC(=O)C1=CN(C)c2cc3c(cc2C1)OCO3 [Compound 1g, 1-(5-Methyl-5,8-dihydro-[1,3]dioxolo[4,5-g]quinolin-7-yl)ethanone] | 152 to 153 °C | > 10 µM | > 10 µM | – |
| COc1ccc2cc(C(C)=O)c[n+](C)c2c1.[I-] [Compound 2h, 3-Acetyl-7-methoxy-1-methylquinolin-1-ium iodide] | 223 to 224 °C | – | – | IC50 [1, 12]: > 10 µM; IC50 [5, 13]: > 10 µM |
| CCC[n+]1cc(C(C)=O)cc2ccc(OC)cc21.[Br-] | 183 to 184 °C | – | – | – |
